Assay results from publication PMC12807552, “The Synthesis of BODIPY-TKI Conjugates and Investigation of Their Ability to Target the Epidermal Growth Factor Receptor” (Targets (Basel), 2023).

Biological target: EGFR kinase domain (epidermal growth factor receptor) (Homo sapiens, UniProt P00533)
Assay: biochemical

Chain of EGFR kinase domain (epidermal growth factor receptor) (P00533 695-1210): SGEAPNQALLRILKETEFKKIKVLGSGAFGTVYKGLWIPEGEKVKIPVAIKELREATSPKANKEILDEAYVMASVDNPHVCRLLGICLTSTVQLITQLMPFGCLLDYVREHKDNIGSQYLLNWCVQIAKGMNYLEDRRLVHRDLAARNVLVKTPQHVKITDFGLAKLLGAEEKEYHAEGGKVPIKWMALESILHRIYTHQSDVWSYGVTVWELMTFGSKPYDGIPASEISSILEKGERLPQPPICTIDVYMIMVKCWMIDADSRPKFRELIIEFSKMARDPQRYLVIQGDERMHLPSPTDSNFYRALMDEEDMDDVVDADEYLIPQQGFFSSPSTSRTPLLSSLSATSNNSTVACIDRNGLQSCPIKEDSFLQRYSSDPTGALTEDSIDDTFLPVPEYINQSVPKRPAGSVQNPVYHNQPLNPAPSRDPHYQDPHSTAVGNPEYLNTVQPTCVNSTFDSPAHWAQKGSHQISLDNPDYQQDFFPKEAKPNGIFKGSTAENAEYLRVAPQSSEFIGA

**Q.** How did the Kd turn out when `COCCOc1cc2ncnc(Nc3cccc(-c4cn(CCOCCOCCOCCNC(=S)Nc5ccc(-c6c7ccccc7c7n6[B-](F)(F)[N+]6=C(c8ccc(N=C=S)cc8)c8ccccc8C6=C7c6cc(OC)cc(OC)c6)cc5)nn4)c3)c2cc1OCCOC` [compound 5, BODIPY-monoTKI] was run?
**A.** 8.04 µM
